Measured values reported in article PMC9795070, “Customized chitooligosaccharide production—controlling their length via engineering of rhizobial chitin synthases and the choice of expression system” (Frontiers in Bioengineering and Biotechnology, 2022).

Target: T1, NodC_GRH2 (Rhizobium sp. GRH2, UniProt A0A0N7ARR3)
T1 construct: gene nodC; wild-type nodC in shuttle vector pEKEx3, expressed in E. coli BL21 (DE3) and C. glutamicum DSM20300; not purified, membrane-embedded
T1 sequence (A0A0N7ARR3 1-443): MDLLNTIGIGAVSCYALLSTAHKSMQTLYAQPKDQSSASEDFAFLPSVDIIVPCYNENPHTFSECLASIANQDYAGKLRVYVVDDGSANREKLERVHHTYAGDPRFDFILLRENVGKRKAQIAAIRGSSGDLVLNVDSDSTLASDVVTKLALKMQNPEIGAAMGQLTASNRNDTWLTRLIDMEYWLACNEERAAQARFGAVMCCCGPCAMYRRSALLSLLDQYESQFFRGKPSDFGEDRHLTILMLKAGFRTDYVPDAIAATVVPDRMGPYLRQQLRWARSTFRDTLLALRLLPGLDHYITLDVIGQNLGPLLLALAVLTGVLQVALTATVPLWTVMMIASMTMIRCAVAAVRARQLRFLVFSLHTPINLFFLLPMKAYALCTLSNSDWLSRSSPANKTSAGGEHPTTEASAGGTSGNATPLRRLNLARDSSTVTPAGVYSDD
Assay: whole-cell production, HILIC-ESI-MS of lysed culture
Assay type: cell-based
Conditions: 0.1 mM IPTG, donor UDP-GlcNAc from the host

Compound	whole-cell production, HILIC-ESI-MS of lysed culture (C. glutamicum DSM20300, 30 °C)	whole-cell production, HILIC-ESI-MS of lysed culture (E. coli BL21 (DE3), 30 °C)
CC(=O)N[C@H]1[C@H](O[C@H]2[C@H](O)[C@@H](NC(C)=O)[C@H](O[C@H]3[C@H](O)[C@@H](NC(C)=O)C(O)O[C@@H]3CO)O[C@@H]2CO)O[C@H](CO)[C@@H](O[C@@H]2O[C@H](CO)[C@@H](O[C@@H]3O[C@H](CO)[C@@H](O[C@@H]4O[C@H](CO)[C@@H](O)[C@H](O)[C@H]4NC(C)=O)[C@H](O)[C@H]3NC(C)=O)[C@H](O)[C@H]2NC(C)=O)[C@@H]1O (some centres unmarked) [A6, hexamer]	C. glutamicum expressing the same wildtype enzyme produces predominantly A6	–
CC(=O)N[C@H]1[C@H](O[C@H]2[C@H](O)[C@@H](NC(C)=O)[C@H](O[C@H]3[C@H](O)[C@@H](NC(C)=O)C(O)O[C@@H]3CO)O[C@@H]2CO)O[C@H](CO)[C@@H](O[C@@H]2O[C@H](CO)[C@@H](O[C@@H]3O[C@H](CO)[C@@H](O)[C@H](O)[C@H]3NC(C)=O)[C@H](O)[C@H]2NC(C)=O)[C@@H]1O (some centres unmarked) [A5, pentamer]	–	the main product for wildtype NodC_GRH2 throughout the whole cultivation is A5
